Data on three compounds can be found in patent publication US10092596B2, “Tungstate treatment of the dysbiosis associated with gastrointestinal inflammation” (THE REGENTS OF THE UNIVERSITY OF CALIFORNIA, priority 2013, dated 2018).

Series [1] deals with Kc. Kind of series: Kc transcript levels in the cecal mucosa of DSS-treated conventional mice (real-time PCR). The series is classed as in vivo. Conditions: 4% DSS for 9 days. The source says: (§1) (13A-C) Conventional mice received 4% DSS alone (DSS) or in combination with sodium tungstate (DSS+Na2WO4) for 9 days. (13D) Germ-free mice received 1% DSS or 1% DSS+Na2WO4 for five days. (13A) Average histopathology score from the cecum.
(§2) This reduction was remarkable, because DSS treatment induces cecal inflammation by a mechanism that is only partially dependent on the presence of microbiota (10). In other words, DSS treatment causes inflammation in germ-free mice, but inflammation is exacerbated by the presence of microbiota. Thus, by inhibiting the microbiota-dependent component of inflammation, one can only expect to achieve a reduction in inflammation, but not a resolution of inflammation. Thus, given the marked pathology observed in DSS-treated germ-free mice (10), the reduction of cecal pathology after tungsten treatment was remarkable.
A general note: In qPCR the cycle at which signal appears reflects the starting amount.

A short description of series [2]: Body weight in the DSS-colitis model. The format is in vivo, C57BL/6 mice. The settings on record: 3% DSS, tungstate 0.2% in drinking water, after 8 days of DSS treatment. The source says:
To determine whether the administration of soluble tungsten (W) salts can abolish anaerobic respiration and thus blunt the bloom of Enterobacteriaceae in vivo, a murine model of chemically-induced colitis, the dextran sulfate sodium (DSS) colitis model, was employed. Oral administration of DSS in the drinking water induces a vigorous intestinal inflammatory response that is accompanied by a bloom of commensal Enterobacteriaceae (3). Groups of C57BL/6 mice received DSS-supplemented (2 or 3%) drinking water or received DSS-supplemented (2 or 3%) drinking water with sodium tungstate (0.2%) added. After onset of inflammation (4 days after start of the treatment), mice were intragastrically inoculated with a 1:1 mixture of the E. coli Nissle 1917 wild-type and an isogenic moaA mutant deficient for molybdopterin cofactor biosynthesis. Utilization of these non-pathogenic indicator strains allows a determination of the growth advantage conferred through anaerobic respiration by comparing colonization with the wild-type strain with an anaerobic respiration-deficient mutant (moaA mutant) (3). 5 days after inoculation of mice, animals were euthanized and colonization with the E. coli indicator strains determined by cultivation on selective media (each of the strains is marked with a different antibiotic resistance gene) (FIG. 10). […]

In series [3] the test system is E. coli Nissle 1917 wild-type and moaA mutant. Kind of series: DSS colitis model, colonization with E. coli indicator strains (wild-type and moaA mutant, 1:1). The series is classed as in vivo. From the text: To determine whether the administration of soluble tungsten (W) salts can abolish anaerobic respiration and thus blunt the bloom of Enterobacteriaceae in vivo, a murine model of chemically-induced colitis, the dextran sulfate sodium (DSS) colitis model, was employed. Oral administration of DSS in the drinking water induces a vigorous intestinal inflammatory response that is accompanied by a bloom of commensal Enterobacteriaceae (3). Groups of C57BL/6 mice received DSS-supplemented (2 or 3%) drinking water or received DSS-supplemented (2 or 3%) drinking water with sodium tungstate (0.2%) added. After onset of inflammation (4 days after start of the treatment), mice were intragastrically inoculated with a 1:1 mixture of the E. coli Nissle 1917 wild-type and an isogenic moaA mutant deficient for molybdopterin cofactor biosynthesis. Utilization of these non-pathogenic indicator strains allows a determination of the growth advantage conferred through anaerobic respiration by comparing colonization with the wild-type strain with an anaerobic respiration-deficient mutant (moaA mutant) (3). 5 days after inoculation of mice, animals were euthanized and colonization with the E. coli indicator strains determined by cultivation on selective media (each of the strains is marked with a different antibiotic resistance gene) (FIG. 10).
To further test the efficacy of tungstate treatment, E. coli indicator strains that were either proficient for anaerobic respiration (E. coli Nissle 1917 wild-type) or deficient for nitrate respiration, DMSO respiration, and TMAO respiration due to a mutation in one of the molybdopterin cofactor biosynthesis genes (E. coli Nissle 1917 moaA mutant) were used. Groups of mice with DSS-induced colitis were inoculated with an equal mixture of both E. coli indicator strains (i.e., wild-type and moaA mutant) and received either regular water (vehicle control) or drinking water containing 2 g/l sodium tungstate (Na2WO4×2H2O; Sigma-Aldrich, St. Louis, Mo., USA) to receive a calculated average dose of 130 mg/kg/day (assuming 2.6 ml of water intake per day for each animal). These experiments determined whether anaerobic respiration would provide a fitness advantage upon the E. coli wild-type over the moaA mutant in the inflamed intestine of DSS-treated mice. Furthermore, if tungstate treatment would inhibit anaerobic respiration, these experiments determined whether this fitness advantage would be eliminated and both strains would be recovered at a 1:1 ratio. In other words, the use of E. coli indicator strains as described herein enabled the determination of whether tungstate treatment would block growth by anaerobic respiration in vivo.

The next series deals with AIEC strain LF82. The settings on record: DSS-treated mice infected with LF82, tungstate in water.
The conditions of series [4]: oral, 100 mg twice a day for 6 weeks, cited from earlier work.
A short description of series [5]: Histopathology score of the cecum in DSS-treated conventional mice. The format is in vivo. Conditions: 4% DSS for 9 days, blinded scoring.
Text: as §1, §2

The subject of a further series is Tnfa. Kind of series: Tnfa transcript levels in the cecal mucosa of DSS-treated mice (real-time PCR). The settings on record: conventional mice, 4% DSS for 9 days. The series is classed as in vivo.
Text: as §1, §2

Series [6] deals with Kc. Kind of series: Kc transcript levels in the cecal mucosa of DSS-treated germ-free mice. The format is in vivo. The settings on record: 1% DSS, 5 days after the beginning of DSS treatment. The protocol:
as §1
The key experiment to distinguish between these two possibilities is to test whether tungstate treatment reduces inflammation in germ-free mice. To this end, groups of four germ-free mice were treated with 1% DSS, 1% DSS+sodium tungstate, or drinking water without supplementation.

Series [7] deals with facultative anaerobic bacteria. The experiment in a line: Microbial community profiling in mouse colitis models (16S rRNA gene sequences). The settings on record: mice with severe colitis (DSS or oxazolone) treated with tungstate. The format is in vivo. The source says: To investigate whether changes in the microbial communities that develop during inflammation are due to anaerobic respiration, the temporal dynamics of the entire gut community can be monitored in mouse models of colitis. In particular, colitis can be induced by DSS treatment or hapten-induced (oxazolone-treatment) in wild type and Nos2-deficient mice, including those that are additionally exposed to tungstate, AG, or NAC. The experiments can be performed as follows.
Wild type mice (C57BL/6) and Nos2-deficient mice are co-housed for two weeks to reduce the variation in the microbial community structure prior to inducing inflammation. Feces are collected from all animals for DNA isolation to establish a baseline of the microbiota composition at the beginning of the experiment. Six mice from each mouse strain (C57BL/6 mice or Nos2-deficient mice) are euthanized to isolate bacterial DNA from cecal and colon contents and to establish a baseline for inflammatory host responses using the methods described above (see, Section 5). Groups of mice from each mouse strain (e.g., C57BL/6 mice or Nos2-deficient mice) are treated with 4% DSS in drinking water or are “mock-treated” (i.e., mice will receive drinking water without DSS). […]
The development of intestinal inflammation is monitored using methods described above (see, Section 5). […]

Series [8] is described as follows: Inflammation and morbidity in DSS-treated mice infected with LF82. The format is in vivo, mice (C57BL/6). The settings on record: AG or tungstate in water, NAC in chow. The protocol:
The development of intestinal inflammation can be followed as described below. The severity of inflammatory changes in the cecum and the colon are assessed by several independent approaches at three, five and seven days after inoculation. First, the relative transcript levels of genes encoding neutrophil chemoattractants (i.e., genes encoding the CXC-chemokines Kc and the Mip2) and iNOS (Nos2) are determined (see, e.g., 62, 64). Second, to monitor, on the protein level, how inflammatory markers increase after DSS treatment, expression levels of iNOS and myeloperoxidase (MPO) are analyzed in protein samples extracted from the colonic mucosa by Western blot using anti-iNOS antibodies (Abcam), anti-MPO antibodies (R&D systems), and anti-tubulin as a loading control (64). Third, concentrations of the neutrophil-specific enzyme MPO in fecal pellets are measured by ELISA. This can serve as an indicator for the degree of neutrophil transmigration into the intestinal lumen over time (6, 42). Finally, pathological changes in the colonic mucosa are assessed through standardized, blinded scoring of formalin-fixed, hematoxylin and eosin-stained sections by a veterinary pathologist (64).

The next series relates to nitrate reductase. Kind of series: Nitrate reductase activity in E. coli Nissle 1917 cultures (modified Griess assay). The series is classed as cell-based. The settings on record: LB broth with 40 mM nitrate, microaerobic, 3 h at 37° C.; versus mock-treated cultures. From the text:
In E. coli, the respiratory reductases for nitrate, DMSO and TMAO as well as the formate dehydrogenases FdnG and FdoG contain molybdenum (Mo) as a key catalyst for electron transfer reactions (7). The functions of FdnG and FdoG are linked to respiration, because these two formate dehydrogenases couple respiratory electron acceptors to the electron donor formate, a fermentation end product present in the large intestine. Formate dehydrogenases and respiratory reductases contain Mo within a molybdopterin cofactor. Tungsten (W) has chemical properties similar, but not identical, to Mo. […] To test whether the addition of W (as the soluble sodium salt Na2WO4; sodium tungstate) to bacterial growth media can inhibit anaerobic nitrate respiration, aliquots of LB broth supplemented with 40 mM nitrate and varying concentrations of tungstate were inoculated with the E. coli Nissle 1917 wild-type strain and incubated under microaerobic conditions for 3 h at 37° C. (3). Nitrate reductase activity was assayed using a modified Griess assay (9) (FIG. 9).

For series [9], the system named is neutrophils. The settings on record: in vitro; cited from earlier work.
For series [10], the system named is neutrophils. Conditions: in vivo; cited from earlier work.
A further series concerns nitrate/nitrite. The experiment in a line: Nitrate/nitrite concentration in the cecal mucus of DSS-treated mice. The series is classed as in vivo. Conditions: AG in drinking water. The source says: Bars represent geometric means±standard error. *, P<0.05; **, P<0.01.
To determine whether the availability of nitrate increases during DSS colitis, the concentration of nitrate/nitrite in the colonic mucus of mock-treated and DSS-treated mice was examined. […] The results supported the idea that the inflammatory host response generates respiratory electron acceptors in the large bowel.
(§3) Since the fitness advantage conferred by nitrate respiration was abrogated in Nos2-deficent mice (FIG. 2), the ability of inhibiting nitrate respiration in vivo was tested by supplementing the drinking water of mice with the iNOS inhibitor aminoguanidine (AG).

For series [11], the system named is E. coli Nissle 1917 and narG napA narZ mutant. The experiment in a line: Competitive infection of DSS-treated mice with E. coli Nissle 1917 and its nitrate respiration-deficient mutant. The series is classed as in vivo. The settings on record: AG in drinking water, five days after infection. The protocol: Mice were mock-treated or treated with dextran sulfate sodium (DSS) or DSS+aminoguanidine (AG) and infected with equal mixtures of the indicated E. coli strains. Five days after infection, the ratio of wild-type (wt) and mutant recovered from colon contents was determined (competitive index). Bars represent geometric means±standard error.
Next, mock-treated mice (C57BL/6) or mice with DSS-induced colitis were inoculated with an equal mixture of E. coli Nissle 1917 and its isogenic nitrate respiration-deficient mutant (competitive infection design). Wild type and nitrate respiration-deficient mutant strains colonized the intestine of normal mice poorly, but similar numbers of each strain were recovered from colon contents (FIG. 2). […] Thus, nitrate respiration enhanced the fitness of E. coli in the inflamed gut.
as §3

The mark [12] stands for this setting: sodium tungstate 0.2% in drinking water, DSS 2 or 3%, 5 days after inoculation.

Where two headings read alike, the source gives them in different places. Some results are limits rather than exact numbers.

Method for AIEC strain LF82: Groups of 6 DSS-treated mice (C57BL/6) were provided with water or water supplemented with AG or tungstate and fed regular chow or chow supplemented with NAC. Mice were then inoculated with wild-type LF82 or sterile medium (mock-infection) and organs were collected at three, five and seven days after infection.
In addition, colony forming units (CFU) of E. coli are determined by spreading homogenates of colon contents on plates containing the appropriate antibiotics (all LF82 derivatives are marked with a kanamycin resistance cassette inserted downstream of the lac operon).

With `[Na+].[Na+].[O]=[W](=[O])([O-])[O-]` [sodium tungstate], the “induction of Kc in the cecal mucosa” value in the series on Kc [1] is reported as “abrogated induction”. The body weight in series [2] is > 90 % of starting weight. Besides, the “absolute numbers of E. coli recovered from colon contents (bloom)” value in series [3] (DSS+Na2WO4 versus DSS alone, FIG. 12B) is given as “prevented facultative anaerobic bacteria from blooming”. Besides, in series [3] (DSS-induced colitis, drinking water with 2 g/l sodium tungstate (130 mg/kg/day)), the “competitive index (ratio of wild-type to moaA mutant) recovered from colon contents” value was “both strains were recovered in equal numbers”. For the same compound, in series [3] (setting [12]), the “recovery of wild-type versus moaA mutant from colon content” value is “both strains were recovered at similar numbers” and the “total number of E. coli indicator strains recovered from colon content” value is “significantly diminished”. In addition, the “growth of AIEC by anaerobic respiration” value in the series with AIEC strain LF82 was “reduction in the growth of AIEC”. In series [4] (human obesity), the body weight result is reported as “did not reduce body weight”. The safety parameters result in [4] (human) is “not associated with abnormal safety parameters”. In addition, in [5], the “overall pathology score of the cecal mucosa” value is given as “significant (P<0.05) reduction”. Moreover, the “transcript levels of Tnfa in the cecal mucosa” value in the series on Tnfa is “blunting of transcript levels”. Further, the “levels of pro-inflammatory cytokines (Kc transcript)” value in the series with Kc [6] was “did not reduce”. The “increased abundance of facultative anaerobic bacteria associated with inflammation” value in series [7] is reported as “not observed”. Besides, the inflammation and morbidity entry in [8] was “reducing inflammation and morbidity”. Further, in the series on nitrate reductase, the “tungstate concentration at which nitrate reductase activity was significantly reduced” value is listed as “exceeding 10 ng/ml”.

Consider `CC(=O)N[C@@H](CS)C(=O)O` [NAC, N-acetylcysteine], for which the “concentration that almost completely inhibits the oxidative response of neutrophils to E. coli” value with neutrophils [9] is 76 mM. Further, the “oxidative burst activity of neutrophils” value with neutrophils [10] was “suppress the oxidative burst activity”. For the same compound, the inflammation and morbidity entry in series [8] is “intermediate effect”.

Turning to `N=C(N)NN` [AG, aminoguanidine], the “availability of nitrate/nitrite in the large bowel” value in the series with nitrate/nitrite was “markedly reduced”. The “fitness advantage conferred by nitrate respiration (competitive index)” value in series [11] is “abrogated the fitness advantage”. Also, the inflammation and morbidity entry in [8] is reported as “intermediate effect”.
